{"source": "patent US6747006B2", "about": "“Use of GLP-1 or analogs in treatment of myocardial infarction” (Eli Lilly and Company, priority 1996, dated 2004)", "origin": "cited, not measured here", "tested_on": "diabetic patients during acute myocardial infarction", "details": "insulin and glucose infusion, then subcutaneous multidose insulin; compared with control group of diabetics without insulin treatment", "data": [{"substance": "Insulin: insulin given as control by continuous infusion or subcutaneous injection", "values": [{"measurement": "lowering of mortality during the year following myocardial infarction", "result": 30, "unit": "%"}]}]}
